Data: ChEMBL document CHEMBL1909046, “DrugMatrix in vitro pharmacology data”

Tests used:
[1] = target: Beta-2 adrenergic receptor (Homo sapiens, UniProt P07550); experiment: DRUGMATRIX: Adrenergic beta2 radioligand binding (ligand: [3H] CGP-12177); assay type: cell membranes, Membrane; settings: cho; Not Active = under 50% inhibition at 10 µM
[2] = target: Sodium-dependent dopamine transporter (Homo sapiens, UniProt Q01959); experiment: DRUGMATRIX: Dopamine Transporter radioligand binding (ligand: [125I] RTI-55); assay type: cell membranes, CHO-K1, Membrane; settings: Not Active = under 50% inhibition at 10 µM
Insulin receptor = Insulin receptor (Rattus norvegicus, UniProt P15127); assay type: cell membranes, Wistar, Liver, Membrane; note: in other assays of this panel Not Active means under 50% inhibition at 10 µM
[3] = target: Matrix metalloproteinase-9 (Homo sapiens, UniProt P14780); experiment: biochemical; assay type: cell-based;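 note: inhibition of isolated MMP-9 enzyme activity toward a synthetic peptide substrate, from the DrugMatrix protease screening panel; in other assays of this panel Not Active means under 50% inhibition at 10 µM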
[4] = target: Protein kinase C alpha type (Homo sapiens, UniProt P17252); assay type: cell-based; settings: sf9;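 note: inhibition of PKCalpha kinase activity measured in an enzyme assay with histone as the phosphorylation substrate; in other assays of this panel Not Active means under 50% inhibition at 10 µM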
[5] = target: Epidermal growth factor receptor (Homo sapiens, UniProt P00533); experiment: DRUGMATRIX: Protein Tyrosine Kinase, EGF Receptor enzyme inhibition (substrate: Poly(Glu:Tyr)); assay type: cell-based, Insect cells; settings: Not Active = under 50% inhibition at 10 µM
Epidermal growth factor receptor, sequence (P00533 whole entry): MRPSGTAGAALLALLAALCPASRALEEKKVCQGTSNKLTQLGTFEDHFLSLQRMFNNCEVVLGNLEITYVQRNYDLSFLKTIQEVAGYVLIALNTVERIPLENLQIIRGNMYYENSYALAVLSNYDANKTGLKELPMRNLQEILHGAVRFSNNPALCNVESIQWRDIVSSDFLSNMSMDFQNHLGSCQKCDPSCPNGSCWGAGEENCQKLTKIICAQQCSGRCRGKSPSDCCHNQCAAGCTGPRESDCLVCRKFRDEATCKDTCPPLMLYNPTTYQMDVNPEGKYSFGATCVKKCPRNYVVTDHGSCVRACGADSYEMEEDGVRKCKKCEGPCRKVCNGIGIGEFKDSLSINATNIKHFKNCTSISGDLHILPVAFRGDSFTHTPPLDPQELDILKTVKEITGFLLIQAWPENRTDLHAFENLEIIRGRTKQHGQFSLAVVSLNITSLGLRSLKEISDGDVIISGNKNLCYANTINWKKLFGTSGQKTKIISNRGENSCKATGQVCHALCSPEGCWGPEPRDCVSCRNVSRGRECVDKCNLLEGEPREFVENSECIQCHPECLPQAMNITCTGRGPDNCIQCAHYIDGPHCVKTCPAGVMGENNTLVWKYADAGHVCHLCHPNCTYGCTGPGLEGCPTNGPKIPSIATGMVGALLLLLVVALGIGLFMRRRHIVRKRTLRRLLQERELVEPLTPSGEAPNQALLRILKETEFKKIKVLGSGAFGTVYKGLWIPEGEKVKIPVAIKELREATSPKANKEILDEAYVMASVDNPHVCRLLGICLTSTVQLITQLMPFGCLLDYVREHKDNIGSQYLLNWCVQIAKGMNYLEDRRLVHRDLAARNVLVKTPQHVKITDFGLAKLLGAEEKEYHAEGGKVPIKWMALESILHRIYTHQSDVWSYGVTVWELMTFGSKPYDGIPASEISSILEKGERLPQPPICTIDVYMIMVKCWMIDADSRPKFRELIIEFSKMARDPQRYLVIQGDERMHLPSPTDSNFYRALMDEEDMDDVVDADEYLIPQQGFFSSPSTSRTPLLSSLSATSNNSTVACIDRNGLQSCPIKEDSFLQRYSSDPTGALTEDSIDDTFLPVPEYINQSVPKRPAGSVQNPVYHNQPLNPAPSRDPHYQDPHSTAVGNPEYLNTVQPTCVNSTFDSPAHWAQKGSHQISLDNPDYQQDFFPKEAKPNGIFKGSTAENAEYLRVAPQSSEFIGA

Matrix metalloproteinase-9, sequence (P14780 whole entry): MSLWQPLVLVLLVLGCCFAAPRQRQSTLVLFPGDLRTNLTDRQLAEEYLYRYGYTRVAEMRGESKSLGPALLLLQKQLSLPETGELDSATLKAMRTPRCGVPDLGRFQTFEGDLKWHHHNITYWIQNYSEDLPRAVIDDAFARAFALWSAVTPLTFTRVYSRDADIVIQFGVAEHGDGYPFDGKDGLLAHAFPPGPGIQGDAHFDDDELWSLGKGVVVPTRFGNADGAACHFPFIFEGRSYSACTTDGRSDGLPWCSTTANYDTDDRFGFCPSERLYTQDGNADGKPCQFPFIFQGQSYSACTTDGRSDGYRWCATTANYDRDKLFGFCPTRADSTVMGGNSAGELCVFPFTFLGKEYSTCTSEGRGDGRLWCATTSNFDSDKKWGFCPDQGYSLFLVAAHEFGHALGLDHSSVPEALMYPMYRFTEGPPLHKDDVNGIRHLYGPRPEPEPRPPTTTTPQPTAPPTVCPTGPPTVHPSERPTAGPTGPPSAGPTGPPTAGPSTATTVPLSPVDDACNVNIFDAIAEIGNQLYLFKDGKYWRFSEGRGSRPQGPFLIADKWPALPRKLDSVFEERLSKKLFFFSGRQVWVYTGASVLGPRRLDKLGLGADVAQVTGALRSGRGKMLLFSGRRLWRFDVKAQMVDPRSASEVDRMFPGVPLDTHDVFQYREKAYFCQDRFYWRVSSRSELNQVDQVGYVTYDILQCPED
Beta-2 adrenergic receptor, sequence (P07550 whole entry): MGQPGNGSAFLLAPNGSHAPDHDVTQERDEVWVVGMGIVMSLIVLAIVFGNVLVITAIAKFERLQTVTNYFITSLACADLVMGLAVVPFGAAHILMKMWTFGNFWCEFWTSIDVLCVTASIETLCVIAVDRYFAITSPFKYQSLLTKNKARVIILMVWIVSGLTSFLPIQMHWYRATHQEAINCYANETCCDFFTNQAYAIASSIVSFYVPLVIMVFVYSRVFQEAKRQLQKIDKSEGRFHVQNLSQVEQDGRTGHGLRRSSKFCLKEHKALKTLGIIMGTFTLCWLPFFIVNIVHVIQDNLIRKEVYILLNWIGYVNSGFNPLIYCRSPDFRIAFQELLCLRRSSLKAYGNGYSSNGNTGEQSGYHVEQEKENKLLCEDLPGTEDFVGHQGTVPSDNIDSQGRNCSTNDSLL
Sodium-dependent dopamine transporter, sequence (Q01959 whole entry): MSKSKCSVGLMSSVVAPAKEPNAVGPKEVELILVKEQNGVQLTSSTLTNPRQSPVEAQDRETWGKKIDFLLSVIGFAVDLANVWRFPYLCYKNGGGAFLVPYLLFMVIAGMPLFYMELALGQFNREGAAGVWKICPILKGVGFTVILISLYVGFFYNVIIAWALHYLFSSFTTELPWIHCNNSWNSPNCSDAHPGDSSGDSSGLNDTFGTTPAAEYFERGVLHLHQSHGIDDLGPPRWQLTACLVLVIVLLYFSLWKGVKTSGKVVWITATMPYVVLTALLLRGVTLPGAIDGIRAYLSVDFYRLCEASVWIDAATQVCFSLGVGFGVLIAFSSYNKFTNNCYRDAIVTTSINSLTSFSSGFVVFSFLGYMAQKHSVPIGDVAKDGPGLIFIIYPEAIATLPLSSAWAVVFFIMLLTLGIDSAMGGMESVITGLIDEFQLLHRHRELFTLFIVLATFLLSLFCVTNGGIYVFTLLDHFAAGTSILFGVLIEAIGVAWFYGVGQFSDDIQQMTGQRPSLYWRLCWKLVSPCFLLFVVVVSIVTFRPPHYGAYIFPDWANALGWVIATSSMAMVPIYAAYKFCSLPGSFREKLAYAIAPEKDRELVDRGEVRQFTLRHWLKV
Insulin receptor, sequence (P15127 27-759 limits assumed): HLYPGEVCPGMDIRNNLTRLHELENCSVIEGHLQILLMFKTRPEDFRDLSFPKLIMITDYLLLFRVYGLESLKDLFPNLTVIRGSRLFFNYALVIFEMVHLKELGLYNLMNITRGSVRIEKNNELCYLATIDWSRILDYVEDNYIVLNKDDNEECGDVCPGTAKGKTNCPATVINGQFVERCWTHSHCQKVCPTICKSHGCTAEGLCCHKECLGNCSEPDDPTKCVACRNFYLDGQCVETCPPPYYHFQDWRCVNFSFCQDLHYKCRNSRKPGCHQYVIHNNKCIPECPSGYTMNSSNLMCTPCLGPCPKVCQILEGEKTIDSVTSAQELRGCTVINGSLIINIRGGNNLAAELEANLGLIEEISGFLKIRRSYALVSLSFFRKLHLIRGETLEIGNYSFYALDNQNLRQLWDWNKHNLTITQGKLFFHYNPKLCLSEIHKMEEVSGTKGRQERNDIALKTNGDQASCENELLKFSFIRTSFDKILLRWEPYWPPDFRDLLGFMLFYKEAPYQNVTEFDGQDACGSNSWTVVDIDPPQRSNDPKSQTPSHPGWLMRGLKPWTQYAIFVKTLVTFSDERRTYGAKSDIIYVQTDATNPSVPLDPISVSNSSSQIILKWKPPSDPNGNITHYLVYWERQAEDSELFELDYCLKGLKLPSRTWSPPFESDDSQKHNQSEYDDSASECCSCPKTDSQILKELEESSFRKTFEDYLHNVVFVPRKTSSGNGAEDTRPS
Insulin receptor, sequence (P15127 764-1383 limits assumed): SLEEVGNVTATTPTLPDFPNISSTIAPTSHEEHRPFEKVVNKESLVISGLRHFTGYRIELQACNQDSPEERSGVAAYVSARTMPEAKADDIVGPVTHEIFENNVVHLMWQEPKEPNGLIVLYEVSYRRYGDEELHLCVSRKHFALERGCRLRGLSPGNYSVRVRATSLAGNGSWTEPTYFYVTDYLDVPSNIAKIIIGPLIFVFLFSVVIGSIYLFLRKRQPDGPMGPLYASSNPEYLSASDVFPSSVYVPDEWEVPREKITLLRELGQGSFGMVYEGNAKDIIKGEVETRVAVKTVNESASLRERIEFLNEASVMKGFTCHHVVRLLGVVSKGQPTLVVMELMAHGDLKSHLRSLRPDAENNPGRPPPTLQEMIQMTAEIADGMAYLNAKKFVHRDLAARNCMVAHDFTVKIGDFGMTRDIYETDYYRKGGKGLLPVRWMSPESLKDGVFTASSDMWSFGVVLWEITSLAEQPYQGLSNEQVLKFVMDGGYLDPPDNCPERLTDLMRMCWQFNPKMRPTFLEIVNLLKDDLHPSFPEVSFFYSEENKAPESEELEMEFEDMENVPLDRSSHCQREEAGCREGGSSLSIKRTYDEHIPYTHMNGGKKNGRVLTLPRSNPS

`CCOc1ccc(NC(C)=O)cc1` [PHENACETIN] was tested, and the IC50 [1] was “Not Active”, the IC50 ([2]; cho-k1) was “Not Active” and the IC50 (Insulin receptor) was “Not Active”. For the same compound, the IC50 [3] was “Not Active”, the IC50 [4] was “Not Active” and the IC50 ([5]; insect cells) was “Not Active”.
In the case of `NC1=NC(=O)C(c2ccccc2)O1` (centres undefined) [PEMOLINE], the IC50 [1] is reported as “Not Active”, the IC50 ([2]; read-out: IC50) is reported as 521 nM and the Ki ([2]; read-out: Ki) is reported as 414 nM. For the same compound, the IC50 (Insulin receptor) was “Not Active”, the IC50 [3] was “Not Active” and the IC50 [4] was “Not Active”. The IC50 ([5]; insect cells) was “Not Active”.
`C[C@H](CCC(=O)O)[C@H]1CC[C@H]2[C@@H]3[C@H](O)C[C@@H]4C[C@H](O)CC[C@]4(C)[C@H]3C[C@H](O)[C@]12C` [CHOLIC ACID] was tested, and the IC50 [1] was “Not Active”, the IC50 ([2]; cho-k1) was “Not Active” and the IC50 (Insulin receptor) was “Not Active”. The IC50 [3] was “Not Active”, the IC50 [4] was “Not Active” and the IC50 ([5]; insect cells) was “Not Active”.
With `CC(C)C(Br)C(=O)NC(N)=O` (centres undefined) [BROMISOVALUM] the IC50 [1] was “Not Active”, the IC50 ([2]; cho-k1) was “Not Active” and the IC50 (Insulin receptor) was “Not Active”. For the same compound, the IC50 [3] was “Not Active”, the IC50 [4] was “Not Active” and the IC50 ([5]; insect cells) was “Not Active”.
With `C[C@H]1c2cccc(O)c2C(=O)C2=C(O)[C@]3(O)C(=O)C(C(N)=O)=C(O)[C@@H](N(C)C)[C@@H]3[C@@H](O)[C@@H]21.O` [DOXYCYCLINE] the IC50 [1] was “Not Active”, the IC50 ([2]; cho-k1) was “Not Active” and the IC50 (Insulin receptor) was “Not Active”. The IC50 [3] was “Not Active”, the IC50 [4] was “Not Active” and the IC50 ([5]; insect cells) was “Not Active”.
In the case of `C[C@H](CS)C(=O)N1CCC[C@H]1C(=O)O` [CAPTOPRIL], the IC50 [1] is reported as “Not Active”, the IC50 ([2]; cho-k1) is reported as “Not Active” and the IC50 (Insulin receptor) is reported as “Not Active”. For the same compound, the IC50 [3] was “Not Active”, the IC50 [4] was “Not Active” and the IC50 ([5]; insect cells) was “Not Active”.
In the case of `CC(O)CO` (centres undefined) [PROPYLENE GLYCOL], the IC50 [1] is reported as “Not Active”, the IC50 ([2]; cho-k1) is reported as “Not Active” and the IC50 (Insulin receptor) is reported as “Not Active”. The IC50 [3] was “Not Active”, the IC50 [4] was “Not Active” and the IC50 ([5]; insect cells) was “Not Active”.
In the case of `Cc1c(O)c(=O)ccn1C` [DEFERIPRONE], the IC50 [1] is reported as “Not Active”, the IC50 ([2]; cho-k1) is reported as “Not Active” and the IC50 (Insulin receptor) is reported as “Not Active”. For the same compound, the IC50 [3] was “Not Active”, the IC50 [4] was “Not Active” and the IC50 ([5]; insect cells) was “Not Active”.
For `CC(C)[C@@]1(NC(=O)[C@@H]2C[C@@H]3c4cccc5[nH]cc(c45)C[C@H]3N(C)C2)O[C@@]2(O)[C@@H]3CCCN3C(=O)[C@H](Cc3ccccc3)N2C1=O.CS(=O)(=O)O` [DIHYDROERGOCRISTINE MESYLATE], the IC50 [1] was “Not Active”, the IC50 ([2]; cho-k1) was “Not Active” and the IC50 (Insulin receptor) was “Not Active”. The IC50 [3] was “Not Active”, the IC50 [4] was “Not Active” and the IC50 ([5]; insect cells) was “Not Active”.
In the case of `C1CCC(C(CC2CCCCN2)C2CCCCC2)CC1` (centres undefined) [PERHEXILINE], the IC50 [1] is reported as “Not Active”, the IC50 ([2]; cho-k1) is reported as “Not Active” and the IC50 (Insulin receptor) is reported as “Not Active”. The IC50 [3] was “Not Active”, the IC50 [4] was “Not Active” and the IC50 ([5]; read-out: IC50) was 1490 nM.
With `c1ccc2c(c1)c1cccc3ccc4cccc2c4c31` [BENZO[E]PYRENE] the IC50 [1] was “Not Active”, the IC50 ([2]; cho-k1) was “Not Active” and the IC50 (Insulin receptor) was “Not Active”. The IC50 [3] was “Not Active”, the IC50 [4] was “Not Active” and the IC50 ([5]; insect cells) was “Not Active”.
With `C[C@]12CC[C@@H]3c4ccc(O)cc4CC[C@H]3[C@@H]1CCC2=O` [ESTRONE] the IC50 [1] was “Not Active”, the IC50 ([2]; cho-k1) was “Not Active” and the IC50 (Insulin receptor) was “Not Active”. For the same compound, the IC50 [3] was “Not Active”, the IC50 [4] was “Not Active” and the IC50 ([5]; insect cells) was “Not Active”.
`CNCCc1ccccn1` [BETAHISTINE] was tested, and the IC50 [1] was “Not Active”, the IC50 ([2]; cho-k1) was “Not Active” and the IC50 (Insulin receptor) was “Not Active”. The IC50 [3] was “Not Active”, the IC50 [4] was “Not Active” and the IC50 ([5]; insect cells) was “Not Active”.
In the case of `Cc1ccccc1N1C(=O)c2cc(S(N)(=O)=O)c(Cl)cc2NC1C` (centres undefined) [METOLAZONE], the IC50 [1] is reported as “Not Active”, the IC50 ([2]; cho-k1) is reported as “Not Active” and the IC50 (Insulin receptor) is reported as “Not Active”. The IC50 [3] was “Not Active”, the IC50 [4] was “Not Active” and the IC50 ([5]; insect cells) was “Not Active”.
For `O=C1CC[C@@H](N2C(=O)c3ccccc3C2=O)C(=O)N1`, the IC50 [1] was “Not Active”, the IC50 ([2]; cho-k1) was “Not Active” and the IC50 (Insulin receptor) was “Not Active”. The IC50 [3] was “Not Active”, the IC50 [4] was “Not Active” and the IC50 ([5]; insect cells) was “Not Active”.
In the case of `Nc1c(Br)cc(Br)cc1CN[C@H]1CC[C@H](O)CC1` [AMBROXOL], the IC50 [1] is reported as “Not Active”, the IC50 ([2]; cho-k1) is reported as “Not Active” and the IC50 (Insulin receptor) is reported as “Not Active”. For the same compound, the IC50 [3] was “Not Active”, the IC50 [4] was “Not Active” and the IC50 ([5]; insect cells) was “Not Active”.
With `Nc1nc2c(ncn2COCCO)c(=O)[nH]1` [ACYCLOVIR] the IC50 [1] was “Not Active”, the IC50 ([2]; cho-k1) was “Not Active” and the IC50 (Insulin receptor) was “Not Active”. For the same compound, the IC50 [3] was “Not Active”, the IC50 [4] was “Not Active” and the IC50 ([5]; insect cells) was “Not Active”.
With `CN(C)CCCN1c2ccccc2Sc2ccccc21` [PROMAZINE] the IC50 [1] was “Not Active”, the IC50 ([2]; cho-k1) was “Not Active” and the IC50 (Insulin receptor) was “Not Active”. The IC50 [3] was “Not Active”, the IC50 [4] was “Not Active” and the IC50 ([5]; insect cells) was “Not Active”.
